Experimental data taken from paper PMC3267017, “Design, synthesis and in vitro evaluation of novel bivalent S-adenosylmethionine analogues” (Bioorganic & Medicinal Chemistry Letters, 2012).
Where a name gives a salt, the structure may show the parent alone. Read-outs that look alike come from different tables or passages of the source.

Target: MetJ dimer–DNA complex (F-metC) (Escherichia coli, UniProt P0A8U6)
Test: Fluorescence anisotropy assay: MetJ titrated into F-metC DNA and ligand, MetJ dimer–DNA complex formation
Type: binding
Conditions: for EC50: F-metC 10 nM, average of three titrations, read-out: EC50, concentration of MetJ monomer required to promote half-maximal formation of its complex with the F-metC DNA; for Fold-improvement over monovalent control 11: unquaternised bivalent ligand 1 mM vs 11 at 2 mM; for Fold-improvement over monovalent control 4: ligands 2 mM
Text: A fluorescence anisotropy-based binding assay was used to compare the relative ability of SAM analogues to promote MetJ dimer–DNA complex formation. Since SAM has low affinity for MetJ in the absence of DNA,[8,13] measurements were made in the presence of the DNA fragment F-metC, a fluorescently-labeled analogue of the shortest naturally occurring operator sequence, metC.[14] Titration of MetJ into a solution containing fixed concentrations of F-metC and ligand allows the change in anisotropy related to ternary complex formation to be measured (Fig. 5).
Figure 5 Cartoon illustrating the fluorescence anisotropy assay. The SAM molecules promote the formation of a SAM–F-metC–protein complex, with two MetJ dimers bound to the 18 base-pair DNA duplex.
The half-maximal concentration of MetJ, EC50, required to promote complex formation was determined for each ligand. […] The monovalent ligands 11 and 12 (2 mM) and the bivalent ligands 9 and 10 (1 mM) all promoted the formation of the MetJ–DNA complex (Table 1). […] The unquaternised bivalent ligands 9a–e (1 mM) promoted complex formation up to about threefold more effectively than the corresponding monovalent analogue 11. Similarly, the quaternised bivalent ligands 10a and 10b promoted, respectively, complex formation 2.4- and 3.6-fold more effectively than the quaternised monovalent analogue 12.
Analysis of novel SAM analogues binding to MetJ in the presence of operator DNA was carried out using fluorescence anisotropy. Fluorescence anisotropy experiments were performed on a Spex Fluorolog Tau spectrofluorometer (HORIBA Jobin Yvon) controlled by Datamax software. The excitation and emission wavelengths were set to 488 nm and 517 nm respectively. Slit widths were set to 5 nm and all experiments were carried out at 19 °C. The detector integration time was 5 seconds and three readings were taken of each sample to obtain an average anisotropy. Free anisotropy values were 0.051-0.060. Increase in fluorescence anisotropy was observed upon titration of MetJ into a solution of F-metC (10 nM) with and without ligand ([…]) in TK buffer pH 7.6 (50 mM Trizma hydrochloride pH 7.6, 100 mM KCl) with a total starting volume of 200 µL. […] The final DMSO concentration was 2% or less. After each addition, the sample was mixed with a pipette and left to equilibrate for five minutes before the fluorescence anisotropy readings were acquired. The intensity of linear and perpendicular light, compared to the excitation light is measured experimentally and the anisotropy was calculated using the following equation:‖
The data was fitted to a sigmoidal growth logistic model using the following equation: […]
Where A1 refers to the initial value, A2 refers to the final value, x0 refers to the centre and p is a value relating to the slope of the transition. Errors refer the standard deviation of three titration repeats. An arbitrary weighting function with the following equation was employed: […]

[1] = monovalent ligand 2 mM, DMSO 2%

Chain of MetJ dimer–DNA complex (F-metC) (P0A8U6 2-105, one chain of several): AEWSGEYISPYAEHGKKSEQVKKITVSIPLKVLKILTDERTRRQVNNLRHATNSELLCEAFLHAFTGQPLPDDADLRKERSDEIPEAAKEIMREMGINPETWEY

CCCNC(=O)CCC[N+](C)(C)C[C@H]1O[C@@H](n2cnc3c(N)ncnc32)[C@H](O)[C@@H]1O [Compound 5, reference compound]
EC50 (quaternised ligands 2 mM): 150 ± 10 nM

CN(CC[C@H](N)C(=O)NCc1ccc(CNC(=O)[C@@H](N)CCN(C)C[C@H]2O[C@@H](n3cnc4c(N)ncnc43)[C@H](O)[C@@H]2O)cc1)C[C@H]1O[C@@H](n2cnc3c(N)ncnc32)[C@H](O)[C@@H]1O [Compound 9a, N,N′-(1,4-Phenylenebismethylene)bis{(2′S)-2′-amino-4′-[5′′-deoxy-5′′-(methylamino)-adenosyl]butanamide}]
EC50 (bivalent ligand 1 mM, DMSO 2%): 61 ± 3 nM
Fold-improvement over monovalent control 11: 2.0-fold

CN(CC[C@H](N)C(=O)NCc1cccc(CNC(=O)[C@@H](N)CCN(C)C[C@H]2O[C@@H](n3cnc4c(N)ncnc43)[C@H](O)[C@@H]2O)c1)C[C@H]1O[C@@H](n2cnc3c(N)ncnc32)[C@H](O)[C@@H]1O [Compound 9b, N,N′-(1,3-Phenylenebismethylene)bis{(2′S)-2′-amino-4′-[5′′-deoxy-5′′-(methylamino)-adenosyl]butanamide}]
EC50 (bivalent ligand 1 mM, DMSO 2%): 37 ± 2 nM
Fold-improvement over monovalent control 11: 3.2-fold

CN(CC[C@H](N)C(=O)NCc1ccccc1-c1ccccc1CNC(=O)[C@@H](N)CCN(C)C[C@H]1O[C@@H](n2cnc3c(N)ncnc32)[C@H](O)[C@@H]1O)C[C@H]1O[C@@H](n2cnc3c(N)ncnc32)[C@H](O)[C@@H]1O [Compound 9c, N,N′-(Biphenyl-2,2′-diylybismethylene)bis{(2′′S)-2′′-amino-4′′-[5′′′-deoxy-5′′′-(methylamino)-adenosyl]butanamide}]
EC50 (bivalent ligand 1 mM, DMSO 2%): 39 ± 1 nM
Fold-improvement over monovalent control 11: 3.1-fold

CN(CC[C@H](N)C(=O)NCc1cccc(-c2cccc(CNC(=O)[C@@H](N)CCN(C)C[C@H]3O[C@@H](n4cnc5c(N)ncnc54)[C@H](O)[C@@H]3O)c2)c1)C[C@H]1O[C@@H](n2cnc3c(N)ncnc32)[C@H](O)[C@@H]1O [Compound 9d, N,N′-(Biphenyl-3,3′-diylybismethylene)bis{(2′′S)-2′′-amino-4′′-[5′′′-deoxy-5′′′-(methylamino)-adenosyl]butanamide}]
EC50 (bivalent ligand 1 mM, DMSO 2%): 75 ± 4 nM
Fold-improvement over monovalent control 11: 1.6-fold

CN(CC[C@H](N)C(=O)NCC#CC#CCNC(=O)[C@@H](N)CCN(C)C[C@H]1O[C@@H](n2cnc3c(N)ncnc32)[C@H](O)[C@@H]1O)C[C@H]1O[C@@H](n2cnc3c(N)ncnc32)[C@H](O)[C@@H]1O [Compound 9e, N,N′-(Hexa-2,4-diyne-1,6-diyl)bis{(2′S)-2′-amino-4′-[5′′-deoxy-5′′-(methylamino)-adenosyl]butanamide}]
EC50 (bivalent ligand 1 mM, DMSO 2%): 111 ± 5 nM
Fold-improvement over monovalent control 11: 1.1-fold

C[N+](C)(CC[C@H](N)C(=O)NCc1ccc(CNC(=O)[C@@H](N)CC[N+](C)(C)C[C@H]2O[C@@H](n3cnc4c(N)ncnc43)[C@H](O)[C@@H]2O)cc1)C[C@H]1O[C@@H](n2cnc3c(N)ncnc32)[C@H](O)[C@@H]1O [Compound 10a, N,N′-(1,4-Phenylenebismethylene)bis{(2′S)-2′-amino-4′-[5′′-deoxy-5′′-(dimethylamino)-adenosyl]butanamide}iodide tetratrifluoroacetic acid salt]
EC50 (bivalent ligand 1 mM, DMSO 2%): 15 ± 5 nM

C[N+](C)(CC[C@H](N)C(=O)NCc1cccc(CNC(=O)[C@@H](N)CC[N+](C)(C)C[C@H]2O[C@@H](n3cnc4c(N)ncnc43)[C@H](O)[C@@H]2O)c1)C[C@H]1O[C@@H](n2cnc3c(N)ncnc32)[C@H](O)[C@@H]1O [Compound 10b, N,N′-(1,3-Phenylenebismethylene)bis{(2′S)-2′-amino-4′-[5′′-deoxy-5′′-(dimethylamino)-adenosyl]butanamide}iodide tetratrifluoroacetic acid salt]
EC50 (bivalent ligand 1 mM, DMSO 2%): 10 ± 1 nM

CN(CC[C@H](N)C(=O)NCc1ccccc1)C[C@H]1O[C@@H](n2cnc3c(N)ncnc32)[C@H](O)[C@@H]1O [Compound 11, 5′-[{(3′′S)-4′′-Benzylamino-3′′-amino-4′′-oxobutyl}methylamino]-5′-deoxyadenosine]
EC50 [1]: 120 ± 10 nM

C[N+](C)(CC[C@H](N)C(=O)NCc1ccccc1)C[C@H]1O[C@@H](n2cnc3c(N)ncnc32)[C@H](O)[C@@H]1O [Compound 12, 5′-[{(3′′S)-4′′-Benzylamino-3′′-amino-4′′-oxobutyl}dimethylamino]-5′-deoxyadenosine iodide ditrifluoroacetic acid salt]
EC50 [1]: 36 ± 6 nM

CN(CCCC(=O)NCCCCn1nnc2c1CCCCCC2OCCNC(=O)CCCN(C)C[C@H]1O[C@@H](n2cnc3c(N)ncnc32)[C@H](O)[C@@H]1O)C[C@H]1O[C@@H](n2cnc3c(N)ncnc32)[C@H](O)[C@@H]1O (stereo partly drawn) [Compound 15b, 4-((Adenosyl)(methyl)amino)-N-(2-(1-(4-(4-((adenosyl) (methyl)amino)butanamido)butyl)-4,5,6,7,8,9-hexahydro-1H-cycloocta[d][1,2,3]triazol-4-yloxy)ethyl)butanamide and 4-(-((adenosyl)(methyl)amino)-N-(2-(1-(4-(4-(-((adenosyl)(methyl)amino)butanamido)butyl)-4,5,6,7,8,9-hexahydro-1H-cycloocta[d][1,2,3]triazol-9-yloxy)ethyl)butanamide]
EC50 (unquaternised ligands 2 mM): 76 ± 2 nM

C[N+](C)(CCCC(=O)NCCCCn1nnc2c1CCCCCC2OCCNC(=O)CCC[N+](C)(C)C[C@H]1O[C@@H](n2cnc3c(N)ncnc32)[C@H](O)[C@@H]1O)C[C@H]1O[C@@H](n2cnc3c(N)ncnc32)[C@H](O)[C@@H]1O.[I-].[I-] (stereo partly drawn) [Compound 16b, 4-((Adenosyl)(dimethyl)amino)-N-(2-(1-(4-(4-((adenosyl) (dimethyl)amino)butanamido)butyl)-4,5,6,7,8,9-hexahydro-1H-cycloocta[d][1,2,3]triazol-4-yloxy)ethyl)butanamide diiodide and 4-(-((adenosyl)(dimethyl)amino)-N-(2-(1-(4-(4-(-((adenosyl)(dimethyl)amino)butanamido)butyl)-4,5,6,7,8,9-hexahydro-1H-cycloocta[d][1,2,3]triazol-9-yloxy)ethyl)butanamidediiodide]
Fold-improvement over monovalent control 5 (quaternised ligands 2 mM): 3.6-fold
EC50 (quaternised ligands 2 mM): 42 ± 3 nM

CN(CCCC(=O)NCCNC(=O)CCCN(C)C[C@H]1O[C@@H](n2cnc3c(N)ncnc32)[C@H](O)[C@@H]1O)C[C@H]1O[C@@H](n2cnc3c(N)ncnc32)[C@H](O)[C@@H]1O [Compound 18a, N,N′-Di-[5′-deoxy-5′-N-methyl-N′-(4-butyryl)-adenosine]-1,2-ethylenediamine]
Fold-improvement over monovalent control 4: 1.4-fold
EC50 (unquaternised ligands 2 mM): 700 ± 50 nM

CN(CCCC(=O)NCCCNC(=O)CCCN(C)C[C@H]1O[C@@H](n2cnc3c(N)ncnc32)[C@H](O)[C@@H]1O)C[C@H]1O[C@@H](n2cnc3c(N)ncnc32)[C@H](O)[C@@H]1O [Compound 18b, N,N′-Di-[5′-deoxy-5′-N-methyl-N′-(4-butyryl)]-1,3-diaminopropane]
Fold-improvement over monovalent control 4: 3.1-fold
EC50 (unquaternised ligands 2 mM): 320 ± 40 nM

CN(CCCC(=O)NCCCCNC(=O)CCCN(C)C[C@H]1O[C@@H](n2cnc3c(N)ncnc32)[C@H](O)[C@@H]1O)C[C@H]1O[C@@H](n2cnc3c(N)ncnc32)[C@H](O)[C@@H]1O [Compound 18c, N,N′-Di-[5′-deoxy-5′-N-methyl-N′-(4-butyryl)-adenosine]-1,4-diaminobutane]
Fold-improvement over monovalent control 4: 4.5-fold
EC50 (unquaternised ligands 2 mM): 220 ± 20 nM

CN(CCCC(=O)NCCCCCCNC(=O)CCCN(C)C[C@H]1O[C@@H](n2cnc3c(N)ncnc32)[C@H](O)[C@@H]1O)C[C@H]1O[C@@H](n2cnc3c(N)ncnc32)[C@H](O)[C@@H]1O [Compound 18d, N,N′-Di-[5′-deoxy-5′-N-methyl-N′-(4-butyryl)-adenosine]-1,6-diaminohexane]
EC50 (unquaternised ligands 2 mM): 47 ± 1 nM

C[N+](C)(CCCC(=O)NCCCNC(=O)CCC[N+](C)(C)C[C@H]1O[C@@H](n2cnc3c(N)ncnc32)[C@H](O)[C@@H]1O)C[C@H]1O[C@@H](n2cnc3c(N)ncnc32)[C@H](O)[C@@H]1O.[I-].[I-] [Compound 19b, N,N′-Dimethyl-N,N′-di-[5′-deoxy-5′-N-methyl-N′-(4-butyryl)-adenosine]-1,3-diaminopropane diiodide]
Fold-improvement over monovalent control 5 (quaternised ligands 2 mM): 1.4-fold
EC50 (quaternised ligands 2 mM): 108 ± 3 nM
